Assay results: US20260151516A1, “NEW PET TRACER FOR IMAGING OF THE FUNCTIONAL HEPATIC RESERVE” (Medizinische Universität Innsbruck, priority 2022, published 2026)
“And” between values parts separate entries of the source, which are not always exact repeats. Identical values can stand only once. Like-named read-outs stand apart in the source and are kept apart here. Each block holds one compound with its values, some of them ahead of it.

How the values were obtained:
[1] = Ligand stability in human blood serum (radio-HPLC); type: in vitro ADME; conditions: for Serum stability (% of intact ligand): 37° C.; for Stability in human blood serum (% intact tracer): over the time course of 2 h
Description: (§1) Ligand stability in human blood serum (n=2) and PBS (n=1) was determined for different time points (2 min, 30 min, 60 min, 120 min). Therefore, approx. 5 MBq of radioligand was added to 1 mL of fresh human serum or PBS and incubated at 37° C. At each given time point 100 μL of the mixture were transferred to a 1.5 mL Eppendorf tube containing 100 μL of acetonitrile. The vial was vortexed and centrifuged for 2 min at 14,000 rpm before 100 μL of the supernatant were diluted with 200 μL of water and injected into analytical radio-HPLC. The PBS solution was directly injected into the radio-HPLC. Ligand stability was determined by integrating the areas of the signals in the radio chromatogram in relation to the signal of the intact ligand.

[2] = system: human serum; test: Protein binding in fresh human serum (Sephadex MicroSpin G-50 columns); type: in vitro ADME; conditions: 37° C.
Description: Protein binding was determined for different time points (2 min, 30 min, 60 min, 120 min) in triplicates using Sephadex MicroSpin G-50 columns (GE-Healthcare, Chicago, Illinois, USA). The columns were spun initially at 20,000 rcf for 1 min to remove the storage buffer. Then approx. 5 MBq of radioligand was added to 1 mL of fresh human serum and incubated at 37° C. At each given timepoint 25 μL of the mixture was loaded on to the column, which was then spun at 20,000 rcf for 1 min. The activity content on the column (free radioligand) and in the filtrate (protein bound fraction) was quantified in a γ-counter.

[3] = Biodistribution studies incl. blocking experiments; type: in vivo; conditions: healthy BALB/c mice
Description: For biodistribution studies 6 week old female BALB/c mice (n=3) were injected with 0.1 nmol (100 μL, approx. 1 MBq) of labelled compound via the lateral tail vein and sacrificed after 10, 30, or 60 min by cervical dislocation. The mice were dissected, blood and organs (spleen, pancreas, stomach, intestine, liver, kidney, heart, lung, muscle, and bone) were weighed, and their activity measured in a γ-counter. For blocking experiments, mice were co-injected with 100 μL of a 277 mM Galactose/PBS solution. In case of [^68Ga]Ga-TRAP-GalNAc a 277 mM N-Acetylgalactose solution was used.

[4] = Partition coefficient (log D), n-Octanol/PBS; type: physicochemical
Description: The vials were vortexed for 5 min at 1,500 rpm and then centrifuged for 5 min at 20,000 rcf (Eppendorf Centrifuge 5424).

[5] = target: T1, Recombinant human ASGR1 (Homo sapiens, UniProt P07306); test: In vitro binding study, isolated receptor-based assay against ^125I-Asialoorosomucoid; conditions: recombinant human ASGR1, ^125I-Asialoorosomucoid 50 nM, n = 3; method used [^natGa]Ga-NODAGA-TriGalactan
T1 construct: His tag (inferred from immobilisation on Ni-coated plates)
T1 sequence (P07306 1-291): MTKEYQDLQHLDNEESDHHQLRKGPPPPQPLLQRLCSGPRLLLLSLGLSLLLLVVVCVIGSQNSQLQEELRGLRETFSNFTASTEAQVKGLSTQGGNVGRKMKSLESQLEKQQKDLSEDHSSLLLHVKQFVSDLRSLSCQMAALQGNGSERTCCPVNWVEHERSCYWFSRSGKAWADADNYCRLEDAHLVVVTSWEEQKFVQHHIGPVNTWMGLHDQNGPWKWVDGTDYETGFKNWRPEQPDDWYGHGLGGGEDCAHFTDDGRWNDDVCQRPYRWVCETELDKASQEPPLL
Description: Recombinant human ASGR1 was seeded out into Ni-coated 96 well plates (Pierce, Thermo Fisher) in PBS at a concentration of 2 μg/mL for at least 2 h at room temperature under mild agitation (200 1/min). Unbound receptor was removed by washing the wells twice with binding buffer (25 mM Tris×HCl, 150 mM NaCl, 0.05% TWEEN 20, pH=7.4). Next 140 μL of binding buffer as well as 20 μL of a 19 mM CaCl2-solution were added to the wells followed by addition of either 20 μL of PBS (control) or 20 μL of [^natGa]Ga-NODAGA-TriGalactan in PBS. Final ligand concentrations were ranging from 10^−5-10^−11 M. Lastly 20 μL of ^125I-Asialoorosomucoid (50 nM, 2.4 kBq per well) were added and the plate was incubated for 1 hour at room temperature under mild agitation (200 rpm). Supernatants were removed and the wells washed twice with 200 μL of PBS before receptor bound activity was released by addition of 200 μL of hot (60° C.) 1 M NaOH. Wells were incubated with NaOH for 10 min. Lysates were removed and the wells washed again twice with 200 μL of hot NaOH. The activity content in the lysates was quantified in a γ-counter and the values plotted in excel. Fitting of the sigmoidal binding curve and the calculation of the IC50 value was done with Excel's solver plugin.

[6] = Ligand stability in PBS (radio-HPLC); type: physicochemical; conditions: 37° C., over the time course of 2 h
Description: as §1

[7] = 30 min p.i., blocking with 277 mM galactose

- Serum stability (% of intact ligand) ([1]; 2 min): 99.8%
- Serum stability (% of intact ligand) ([1]; 30 min): 97.6%
- Serum stability (% of intact ligand) ([1]; 60 min): 98.5%
- Serum stability (% of intact ligand) ([1]; 120 min): 92.9%
- Stability in human blood serum (% intact tracer) [1]: > 93%
- Protein binding (%) ([2]; 2 min): 7.6±3.9%
- Protein binding (%) ([2]; 30 min): 5.5%
- Protein binding (%) ([2]; 60 min): 9.2%
- Protein binding (%) ([2]; 120 min): 13.6±3.2%
- Biodistribution Blood ([3]; 10 min p.i.): 3.3 ± 0.2 % ID/g
- Biodistribution Femur ([3]; 10 min p.i.): 0.87 ± 0.52 % ID/g
- Biodistribution Intestine ([3]; 10 min p.i.): 1.13 ± 0.07 % ID/g
- Biodistribution Kidneys ([3]; 10 min p.i.): 8.2±0.5 % ID/g and 8.15 ± 0.54 % ID/g
- Biodistribution Liver ([3]; 10 min p.i.): 33.4±0.9 % ID/g and 33.4 ± 0.88 % ID/g
- Biodistribution Lung ([3]; 10 min p.i.): 2.14 ± 0.13 % ID/g
- Biodistribution Muscle ([3]; 10 min p.i.): 0.77 ± 0.02 % ID/g
- Biodistribution Pancreas ([3]; 10 min p.i.): 0.87 ± 0.12 % ID/g
- Biodistribution Spleen ([3]; 10 min p.i.): 0.78 ± 0.05 % ID/g
- Biodistribution Blood ([3]; 30 min p.i.): 0.89 ± 0.09 % ID/g
- Biodistribution Femur ([3]; 30 min p.i.): 0.22 ± 0.02 % ID/g
- Biodistribution Heart ([3]; 30 min p.i.): 0.40 ± 0.03 % ID/g
- Biodistribution Intestine ([3]; 30 min p.i.): 1.95 ± 0.17 % ID/g
- Biodistribution Kidneys ([3]; 30 min p.i.): 2.83 ± 0.18 % ID/g
- Biodistribution Liver ([3]; 30 min p.i.): 32.2±3.7 % ID/g
- Biodistribution Lung ([3]; 30 min p.i.): 0.74 ± 0.03 % ID/g
- Biodistribution Muscle ([3]; 30 min p.i.): 0.23 ± 0.03 % ID/g
- Biodistribution Pancreas ([3]; 30 min p.i.): 0.31 ± 0.05 % ID/g
- Biodistribution Spleen ([3]; 30 min p.i.): 0.27 ± 0.02 % ID/g
- Biodistribution Stomach ([3]; 30 min p.i.): 1.05 ± 0.08 % ID/g
- Biodistribution Blood [3, 7]: 1.19 ± 0.33 % ID/g
- Biodistribution Femur [3, 7]: 0.37 ± 0.16 % ID/g
- Biodistribution Heart [3, 7]: 0.44 ± 0.03 % ID/g
- Biodistribution Intestine [3, 7]: 0.77 ± 0.19 % ID/g
- Biodistribution Kidneys [3, 7]: 4.19 ± 0.29 % ID/g
- Biodistribution Liver [3, 7]: 13.9±1.0 % ID/g and 14.6 ± 0.15 % ID/g
- Biodistribution Lung [3, 7]: 0.97 ± 0.04 % ID/g
- Biodistribution Muscle [3, 7]: 0.43 ± 0.20 % ID/g
- Biodistribution Pancreas [3, 7]: 0.45 ± 0.01 % ID/g
- Biodistribution Spleen [3, 7]: 0.32 ± 0.03 % ID/g
- Biodistribution Stomach [3, 7]: 0.68 ± 0.11 % ID/g
- Biodistribution Blood ([3]; 60 min p.i.): 0.3±0.04 % ID/g and 0.34 ± 0.04 % ID/g
- Biodistribution Femur ([3]; 60 min p.i.): 0.26 ± 0.19 % ID/g
- Biodistribution Heart ([3]; 60 min p.i.): 0.17 ± 0.00 % ID/g
- Biodistribution Intestine ([3]; 60 min p.i.): 3.0±0.4 % ID/g and 2.99 ± 0.43 % ID/g
- Biodistribution Kidneys ([3]; 60 min p.i.): 1.51 ± 0.10 % ID/g
- Biodistribution Liver ([3]; 60 min p.i.): 27.7±3.1 % ID/g and 27.7 ± 3.12 % ID/g
- Biodistribution Lung ([3]; 60 min p.i.): 0.38 ± 0.10 % ID/g
- Biodistribution Muscle ([3]; 60 min p.i.): 0.17 ± 0.02 % ID/g
- Biodistribution Pancreas ([3]; 60 min p.i.): 0.19 ± 0.09 % ID/g
- Biodistribution Spleen ([3]; 60 min p.i.): 0.16 ± 0.02 % ID/g
- Biodistribution Stomach ([3]; 60 min p.i.): 0.92 ± 0.04 % ID/g
- logD ([4]; read-out: logD): -4.33 ± 0.09
- IC50 [5]: 1.7 nM
- Stability in PBS (% intact tracer) [6]: > 99%
SMILES: O=C(O)CN1CCN(CC(=O)O)CCN([C@H](CCC(=O)NCCCC(=O)NC(COCc2cn(CCOCCOCCO[C@@H]3O[C@H](CO)[C@H](O)[C@H](O)[C@H]3O)nn2)(COCc2cn(CCOCCOCCO[C@@H]3O[C@H](CO)[C@H](O)[C@H](O)[C@H]3O)nn2)COCc2cn(CCOCCOCCO[C@@H]3O[C@H](CO)[C@H](O)[C@H](O)[C@H]3O)nn2)C(=O)O)CC1 [[^68Ga]Ga-NODAGA-TriGalactan, metal not drawn]

SMILES: O=C(CCP(=O)([O-])CN1CCN(CP(=O)([O-])CCC(=O)NCc2cn(CCOCCOCCO[C@@H]3O[C@H](CO)[C@H](O)[C@H](O)[C@H]3O)nn2)CCN(CP(=O)([O-])CCC(=O)NCc2cn(CCOCCOCCO[C@@H]3O[C@H](CO)[C@H](O)[C@H](O)[C@H]3O)nn2)CC1)NCc1cn(CCOCCOCCO[C@@H]2O[C@H](CO)[C@H](O)[C@H](O)[C@H]2O)nn1.[68Ga+3] [[^68Ga]Ga-TRAP-Galactan]
- Serum stability (% of intact ligand) ([1]; 2 min): 97.7 ± 0.3%
- Serum stability (% of intact ligand) ([1]; 30 min): 97.6 ± 0.2%
- Serum stability (% of intact ligand) ([1]; 60 min): 97.6 ± 0.1%
- Serum stability (% of intact ligand) ([1]; 120 min): 97.9 ± 0.1%
- Stability in human blood serum (% intact tracer) [1]: > 98%
- Protein binding (%) ([2]; 2 min): 8.2±3.4%
- Protein binding (%) ([2]; 30 min): 6.4 ± 1.8%
- Protein binding (%) ([2]; 60 min): 12.0 ± 3.1%
- Protein binding (%) ([2]; 120 min): 11.6±2.2%
- Biodistribution Blood ([3]; 10 min p.i.): 3.66 ± 0.2 % ID/g
- Biodistribution Femur ([3]; 10 min p.i.): 0.85 ± 0.33 % ID/g
- Biodistribution Heart ([3]; 10 min p.i.): 1.28 ± 0.06 % ID/g
- Biodistribution Intestine ([3]; 10 min p.i.): 1.24 ± 0.05 % ID/g
- Biodistribution Kidneys ([3]; 10 min p.i.): 7.4±2.1 % ID/g and 7.39 ± 2.1 % ID/g
- Biodistribution Liver ([3]; 10 min p.i.): 24.6±1.6 % ID/g
- Biodistribution Lung ([3]; 10 min p.i.): 2.31 ± 0.17 % ID/g
- Biodistribution Muscle ([3]; 10 min p.i.): 0.91 ± 0.08 % ID/g
- Biodistribution Pancreas ([3]; 10 min p.i.): 0.87 ± 0.01 % ID/g
- Biodistribution Spleen ([3]; 10 min p.i.): 0.84 ± 0.08 % ID/g
- Biodistribution Stomach ([3]; 10 min p.i.): 1.22 ± 0.20 % ID/g
- Biodistribution Blood ([3]; 30 min p.i.): 1.6 ± 0.11 % ID/g
- Biodistribution Femur ([3]; 30 min p.i.): 0.32 ± 0.05 % ID/g
- Biodistribution Heart ([3]; 30 min p.i.): 0.65 ± 0.08 % ID/g
- Biodistribution Intestine ([3]; 30 min p.i.): 2.18 ± 0.10 % ID/g
- Biodistribution Kidneys ([3]; 30 min p.i.): 4.33 ± 0.35 % ID/g
- Biodistribution Liver ([3]; 30 min p.i.): 29.7±1.7 % ID/g
- Biodistribution Lung ([3]; 30 min p.i.): 1.09 ± 0.03 % ID/g
- Biodistribution Muscle ([3]; 30 min p.i.): 0.37 ± 0.02 % ID/g
- Biodistribution Pancreas ([3]; 30 min p.i.): 0.53 ± 0.01 % ID/g
- Biodistribution Spleen ([3]; 30 min p.i.): 0.42 ± 0.07 % ID/g
- Biodistribution Stomach ([3]; 30 min p.i.): 1.00 ± 0.27 % ID/g
- Biodistribution Blood [3, 7]: 1.35 ± 0.52 % ID/g
- Biodistribution Femur [3, 7]: 0.27 ± 0.09 % ID/g
- Biodistribution Heart [3, 7]: 0.44 ± 0.09 % ID/g
- Biodistribution Intestine [3, 7]: 1.02 ± 0.18 % ID/g
- Biodistribution Kidneys [3, 7]: 3.70 ± 0.53 % ID/g
- Biodistribution Liver [3, 7]: 10.6 ± 1.4 % ID/g
- Biodistribution Lung [3, 7]: 0.86 ± 0.14 % ID/g
- Biodistribution Muscle [3, 7]: 0.30 ± 0.04 % ID/g
- Biodistribution Pancreas [3, 7]: 0.37 ± 0.04 % ID/g
- Biodistribution Spleen [3, 7]: 0.29 ± 0.03 % ID/g
- Biodistribution Stomach [3, 7]: 0.49 ± 0.07 % ID/g
- Biodistribution Blood ([3]; 60 min p.i.): 0.3±0.09 % ID/g
- Biodistribution Femur ([3]; 60 min p.i.): 0.13 ± 0.03 % ID/g
- Biodistribution Heart ([3]; 60 min p.i.): 0.16 ± 0.02 % ID/g
- Biodistribution Intestine ([3]; 60 min p.i.): 2.8±0.2 % ID/g and 2.80 ± 0.24 % ID/g
- Biodistribution Kidneys ([3]; 60 min p.i.): 1.72 ± 0.17 % ID/g
- Biodistribution Liver ([3]; 60 min p.i.): 25.0 ± 1.1 % ID/g
- Biodistribution Lung ([3]; 60 min p.i.): 0.32 ± 0.05 % ID/g
- Biodistribution Muscle ([3]; 60 min p.i.): 0.15 ± 0.03 % ID/g
- Biodistribution Pancreas ([3]; 60 min p.i.): 0.16 ± 0.02 % ID/g
- Biodistribution Spleen ([3]; 60 min p.i.): 0.17 ± 0.07 % ID/g
- Biodistribution Stomach ([3]; 60 min p.i.): 0.31 ± 0.21 % ID/g
- logD [4]: −4.26±0.08
- Stability in PBS (% intact tracer) [6]: > 99%
